Results on 71 compounds are retold here after ChEMBL document CHEMBL3507680, “University of Dundee, Gates Library screen for HepG2 cell viability”.

The nature of the data set: Human HepG2 cell viability assay in 384 well format. The note with it: HepG2 cells, read-out: Inhibition. The format is toxicity, cell-based. Also on record: dose 125 nL, time 70.5 hour; concentration not given beside the values.
As for `c1cncc(OCC2CN(Cc3nccs3)Cc3nccn3C2)c1` (stereo unspecified), the cytotoxicity at 70.5 h is -15.5%.
As for `CC(C)NC(=O)CCNC(=O)CCc1cc(Cl)cs1`, the figure is -8.99%.
With `CN(CCC(O)c1ccccc1)c1cc(N2CCOCC2)ncn1` (stereo unspecified), the cytotoxicity at 70.5 h is -11%.
As for `CCn1cc(C(=O)NCc2csc(Br)c2)cn1`, the figure is -11.6%; as for `Cc1cc(NC(=O)NCc2ccccn2)n(C)n1`, -6.19%.
In the case of `OC1(Cn2ccnc2)CCN(C[C@]2(O)CCCN3CCCC[C@@H]32)CC1` it was 11.3%; in that of `CCc1ncc2c(n1)CN(Cc1cnc(C)cn1)CC2`, -72.8%.
In the case of `Cc1cc(C)c(C(=O)NC(c2nnc3n2CCNCC3)C(C)C)c(C)c1` (stereo unspecified) it was -5.04%; in that of `COCCN1CCCC1(C)c1nc(C)cc(N)n1` (stereo unspecified), 0.23%; in that of `Cc1ccc(CN2C[C@H]3C[C@H](C(=O)NCC4CC4)N(C)[C@H]3C2)o1`, -12.6%.
Consider `CC(=O)N1CCOC(c2cc(N3CC(O)C3)nc(C)n2)C1` (stereo unspecified), for which the cytotoxicity at 70.5 h is -16.5%.
In the case of `Cc1ccc(C)c(CNC(=O)NC(C)(C(=O)O)c2ccco2)c1` (stereo unspecified) it was 2.89%.
In the case of `CN(C)C(=O)C1CN(Cc2ccccn2)CCN(S(C)(=O)=O)C1` (stereo unspecified) it was -3.97%; in that of `CC(C)(C)c1coc([C@@H]2COCCN2Cc2cnc3ccccc3c2)n1`, 0.0852%; in that of `Cc1nc(O)cc(C2CCCN(C(=O)COCc3ccccc3)C2)n1` (stereo unspecified), 1.06%.
In the case of `CCCS(=O)(=O)N1Cc2nccn2CC(Cn2cccn2)C1` (stereo unspecified) it was -2.32%; in that of `NC(=O)C1(CNCc2csc(-c3cccs3)n2)CCOCC1`, -6.81%; in that of `Cc1nc(CN2CCc3cnc(C(C)C)nc3C2)oc1C`, -77.4%.
`CCCN1CCCN(c2ncccc2C(=O)N2CCCCC2)CC1`: the cytotoxicity at 70.5 h is -2.98%.
As for `Cc1cccc(N2CCN(CCC(=O)NCc3ccc(C)s3)CC2)c1`, the cytotoxicity at 70.5 h is 20.7%.
In the case of `COCC(=O)N1CCCC1c1nc(O)cc(C(C)C)n1` (stereo unspecified) it was 1.53%.
In the case of `O=C(CCc1nnc2ccccn2c1=O)NCc1ccco1`, the cytotoxicity at 70.5 h was found to be 24.6%.
As for `O=C(c1sccc1C1CC1)N1CCN(Cc2cscn2)CC1`, the figure is 5.77%; as for `Cc1sc(-c2ccco2)nc1C(=O)N(CC1CCOC1)C1CC1` (stereo unspecified), -1.94%; as for `Cc1noc(C)c1CCCNC(=O)C1CCN(C(C)C)CC1`, -7.17%.
In the case of `COCC(=O)N1CC[C@@H](N2CCN(C)CC2)[C@@H]1Cc1ccccc1` it was 9.62%; in that of `c1ccc2c3c([nH]c2c1)CN(Cc1cc2n(n1)CCNC2)CC3`, 21.1%.
In the case of `COCCN1CCC(NCc2c(F)cccc2F)C1` (stereo unspecified) it was -0.0127%; in that of `CC(C)(CO)NCc1ccc(OCc2ccc3c(c2)OCCO3)cc1`, -2.91%.
Take `O=C(CCn1c(=O)oc2ccccc21)NCC(O)c1ccc(F)c(F)c1` (stereo unspecified): the cytotoxicity at 70.5 h was -4.98%.
In the case of `CCC(Nc1cccc(OC)c1)C(=O)NCc1ccc2c(c1)OCO2` (stereo unspecified) it was -8.45%.
In the case of `Cc1cc(NC(=O)NCc2cccnc2OC(C)C)no1` it was -0.0866%; in that of `COCCCN(CCOC)Cc1nc2c(cnn2C)c(=O)[nH]1`, -12.6%; in that of `N#Cc1cccc(S(=O)(=O)NC2CCN(CC(F)(F)F)C2)c1` (stereo unspecified), -15.4%.
As for `N#Cc1cn(C2CC2)c(=O)n(Cc2ncc(-c3cccs3)o2)c1=O`, the figure is -13%.
Turning to `Cc1ccc(CN2Cc3c(C(=O)N4CCOCC4)nn(C)c3C2)s1`, the cytotoxicity at 70.5 h was -2.1%.
In the case of `CC(NCc1cccc(COC2CCCC2)c1)c1cnn(C)c1` (stereo unspecified) it was -3.04%; in that of `CCc1noc(CCC(=O)N[C@@H]2CC[C@@H](n3ccnc3C)[C@@H]2O)n1`, -1.14%.
In the case of `CC(C)C1CN(c2ncccc2Cl)CCC(=O)N1Cc1ccc(F)cc1` (stereo unspecified) it was 4.1%.
In the case of `N#CCCN(CCC#N)C(=O)c1ccc(COc2ccccc2C#N)o1` it was 6.22%; in that of `CC(=O)N1CCC2(CCN(Cc3ccc(Cl)c(C(F)(F)F)c3)CC2)C1`, -11.6%.
Turning to `COCCN1CCN(CCS(C)(=O)=O)CC1C` (stereo unspecified), the cytotoxicity at 70.5 h was found to be 8.39%.
On to `Cc1cc(N)nc(C2(C)CCCN2C(=O)c2cnccn2)n1` (stereo unspecified), for which the cytotoxicity at 70.5 h is 4.65%.
With `CCCN(Cc1ccccc1O)C(=O)Nc1cnn(CCOC)c1`, the cytotoxicity at 70.5 h is -12.8%.
In the case of `Cc1c[nH]c(C2COCCN2C(=O)c2n[nH]c(=O)c3ccccc23)n1` (stereo unspecified) it was -13.4%.
As for `CCc1nnc(NC(=O)c2ccc(C3CCCN3CC(C)C)s2)s1` (stereo unspecified), the figure is -2.96%; as for `c1cc(CNCc2ccnc(N3CCCC3)c2)c2c(c1)OCCCO2`, -10%.
In the case of `CCN(CCCc1ccccc1)CC1(C)Cc2c(N)nc(N)nc2O1` (stereo unspecified) it was 12.9%; in that of `CC(C)c1nc(CN2CCOC(Cn3cccn3)C2)no1` (stereo unspecified), 1.63%.
For `Cc1cccc(C2CCN(S(=O)(=O)c3cn(C)cn3)CC2)n1`, the cytotoxicity at 70.5 h is -8.21%.
As for `COC(CNC(=O)c1cn(C)nn1)c1ccccc1C` (stereo unspecified), the figure is -3.6%; as for `CC(C)(N)C(=O)N1CCCC1c1cncc(Oc2ccccc2)n1` (stereo unspecified), 2.03%.
As for `CCCOC(=O)c1ccc(-c2ccc(/C=C3\C(=O)NC(=N)N3C)o2)cc1`, the figure is 18.1%; as for `CN(C)Cc1ccnc(C2CCCN2Cc2cccc(F)c2F)n1` (stereo unspecified), -2.17%; as for `NC(=O)C1CCN(C(=O)c2ccc(OCc3cscn3)cc2)CC1`, 55.1%.
As for `Cc1noc(NS(=O)(=O)c2ccc(Cl)s2)c1C`, the figure is -0.524%; as for `O=C(NCc1cc(-c2ccccc2)no1)NCC1CCCO1` (stereo unspecified), -0.266%.
For `Cc1cccc(Cc2cc(C)nc(C3CCCNC3)c2)c1` (stereo unspecified), the cytotoxicity at 70.5 h turned out to be 2.77%.
In the case of `O=C(c1cccs1)N1CCC2(CC1)CN(c1cncnc1)C(=O)CO2` it was -12.3%; in that of `CN(Cc1cnn(C)c1)S(=O)(=O)N1CCc2ccccc2C1`, 7.8%.
In the case of `CN(C)c1cc(CNCc2cccc3c2OCCO3)ccn1` it was -4.63%; in that of `O=C(NC[C@H]1OC[C@@H](NC2CCOCC2)[C@@H]1O)Nc1ccccc1`, 14.3%; in that of `COc1ccc(C(C#N)NC(=O)CC2=CCCCC2)c(OC)c1` (stereo unspecified), -3.57%.
On to `Cc1cnn(CCC(=O)NCc2ccc(N(C)C)c(C)c2)c1`, for which the cytotoxicity at 70.5 h was -5.29%.
As for `Cc1nc(N2CCN(C(=O)c3ccsc3)CC2)c2cnn(C)c2n1`, the figure is -10.3%; as for `CC(C)CN1C(=O)COC[C@@H]1[C@H](O)c1ccc(NC(=O)C2CC2)cc1`, 5.4%; as for `O=C(c1cn(-c2ccccc2Cl)nn1)N1CCSCC1`, 15.4%.
As for `CC(=O)N1CCCN(C(=O)c2cnc3n[nH]c(C)c3c2)CC1`, the figure is 11.1%; as for `CCOCc1nc2c(c(N(C)Cc3nonc3C)n1)CCNCC2`, -11.4%; as for `CC(C)n1cc(CN2CCCN(C(=O)c3nccnc3N)CC2)cn1`, 7.08%.
In the case of `O=C(O)c1ccc(CCNC(=O)C2(O)Cc3ccccc3C2)cc1` it was -12.7%.
